Reference: patent publication US20100178334A1, “Oral Pharmaceutical Dosage Form Comprising as Active Ingredients a Proton Pump Inhibitor together with Acetyl Salicyclic Acid” (priority 2005, published 2010)

Legend:
[1] = test system: ulcer complication like bleeding from the stomach or the duodenum; settings: cited from earlier work
[2] = test system: gastric and/or duodenal ulcers in Helicobacter pylori-negative patients ≧60 years receiving ASA; assay: randomized, multicenter, placebo-controlled trial of esomeprazole 20 mg once daily for 26 weeks in patients receiving ASA; assay type: in vivo, human
Protocol: Patients were randomized to receive either esomeprazole 20 mg (administered as esomeprazole magnesium, i.e. Nexium® owned by AstraZeneca AB) or placebo once daily for 26 weeks. The primary outcome variable was the presence of gastric and/or duodenal ulcers at endoscopy over the 26-week period. A total of 991 patients, all receiving ASA in doses varying between 75-325 mg/day (57.1% male, mean age 69.3 years, mean acetyl salicylic acid (ASA) dose 124.0 mg/day) were included in the intent-to-treat population. The cumulative proportion of patients without either gastric or duodenal ulcer at 26 weeks was 98.2% with esomeprazole, compared with 93.8% with placebo (life table estimates, p=0.0007). The incidence of gastric ulcers was lower in patients taking esomeprazole than in those taking placebo (1.2% vs. 3.8%), as was the incidence of duodenal ulcers (0.4% and 1.6% for esomeprazole and placebo, respectively). Eight patients (1.6%) had developed an ulcer, in the esomeprazole group by 6 months, compared with 27 patients (5.4%) in the placebo group. This corresponded to a relative reduction of developing an ulcer of 70% when taking esomeprazole rather than placebo. A total of 95.6% of patients treated with esomeprazole had no esophageal lesions at week 26, compared with 81.7% of patients treated with placebo (p<0.0001).

[3] = test system: damages on the mucosa caused by ASA; settings: concomitant administration for patients treated with ASA; cited from earlier work
[4] = esomeprazole 20 mg once daily, 26 weeks, patients on ASA

CC(=O)Oc1ccccc1C(=O)O [ASA, acetyl salicylic acid]
relative risk of developing an ulcer complication like bleeding from the stomach or the duodenum ([1]; daily dose as low as 75 mg (Weil et al)): doubles
hospital admissions due to adverse drug reactions caused by ASA ([1]; epidemiological data from the UK (Pirmohamed et al)): 18%

COc1ccc2nc([S@@+]([O-])Cc3ncc(C)c(OC)c3C)[nH]c2c1 [esomeprazole]
resolution of investigator-assessed upper gastrointestinal symptoms ([2]; all symptoms, versus placebo): higher with esomeprazole than with placebo
relative reduction of developing an ulcer when taking esomeprazole rather than placebo ([2]; by 6 months, versus placebo): 70%
safety and tolerability ([2]; esomeprazole 20 mg once daily for 26 weeks): safe and well tolerated
incidence of duodenal ulcers [2, 4]: 0.4%
incidence of gastric ulcers [2, 4]: 1.2%
patients who had developed an ulcer by 6 months ([2]; esomeprazole 20 mg once daily, patients on ASA, eight patients): 1.6%
proportion of patients without esophageal lesions at 6 months ([2]; patients with no lesions and those with Los Angeles grade A lesions at baseline, versus placebo): higher with esomeprazole than with placebo

Cc1c(OCC(F)(F)F)ccnc1C[S+]([O-])c1nc2ccccc2[nH]1 (stereo not shown) [lansoprazole]
effect on damages on the mucosa caused by ASA [3]: reduce damages on the mucosa caused by ASA
